Entries after “also recorded” stand apart in the source; their conditions may differ.
Key:
[1] = system: human colon cancer cells (HCT-15); assay: Effect of UTL-5g pretreatment on antitumor effect of cisplatin, HCT-15 tumors in SCID mice (Example 4); type: in vivo
Method: FIG. 7. Effect of UTL-5g pre-treatment on the antitumor effect of cisplatin Group 1, saline, daily ×5 (control); Group 2, cisplatin (2.5 mg/kg) in saline, daily ×5; Group 3, UTL-5g (60 mg/kg) followed by cisplatin (2.5 mg/kg) 30 min later, daily ×5. […] Gp: Group
In order to qualify UTL-5g as a chemoprotective agent, a therapeutic assessment was conducted to evaluate the effect of UTL-5g on the efficacy of cisplatin. Briefly, 25 SCID mice were randomly divided into 5 groups as below. • Gp 1: Saline daily ×5 (control) • Gp 2: Cisplatin 0.2 mg/mL (2.5 mg/kg), daily ×5 • Gp 3: UTL-5g (60 mg/kg) followed by cisplatin (2.5 mg/kg) 30 min later, daily ×5 • Gp 4: Cisplatin 0.4 mg/mL ([…]) in saline, day 1 only • Gp 5: UTL-5g (60 mg/kg) followed by cisplatin (5 mg/kg) 30 min later, day 1 only
Cisplatin was dissolved in saline. UTL-5g was prepared in DMSO/Cremophor/propylene glycol/saline as described in previous section. All injections were ip and the injection volume was 0.25 mL. Three days before treatment (Day −2), human colon cancer cells (HCT-15) were injected subcutaneously and bilaterally (1×10^6 cells per site per mouse) in each SCID mouse in all groups and tumor sizes were measured by a caliper every 2-3 days and the animals were sacrificed when tumor reached 1,200 mm^3.
The % T/C value is used here as the end-point. […]

[2] = system: C57BL/6 mice, liver irradiation; assay: Liver irradiation: serum AST and ALT activities (Examples 5-7); type: in vivo
Method: FIG. 8. Effect of UTL compounds on AST and ALT with and without radiation C57BL/6 male mice were treated with UTL-5b, -5d, and -5g each in 0.3 mL vehicle containing DMSO/(Cremophor:propylene glycol 4:6 v/v)/saline, 5/5/90 v/v by i.p. injection (30 mg/kg) 1 hr prior to liver irradiation with 15 Gy. Serum was obtained at 2 hr after irradiation and assayed for AST and ALT activities. Data are means±standard deviation (S.D.) * indicates p<0.05, n=4.
Mice were treated with various doses of UTL-5g (3.75, 7.5, 15, 30, and 60 mg/kg, i.p.) 1 hr prior to liver radiation with 15 Gy. Serum was obtained at 2 hr after irradiation and assayed for AST (4a) and ALT activities (4b).
FIG. 11. Radiation dose escalation and radioprotection by UTL-5 g Mice were pre-treated with UTL-5g (60mg/kg, i.p.) at 1 hr prior to radiation dose escalation (0, 5, 15, and 25 Gy). Serum was harvested at 2 hr after injections and was subjected to AST/ALT measurements as described in Methods. Results were compared to control mice received control vehicle. Data are means±standard deviation (* p<0.05, 2-tailed paired t-Test comparing treated and untreated groups, n=4).
In a preliminary study, three UTL compounds (5b, 5d and 5g) were examined for their radioprotective effect in C57BL/6 mice. One hr prior to liver irradiation (15 Gy), animals were treated with the test compounds by i.p. injection (30 mg/kg). Two hr later, the animals were sacrificed and serum AST and ALT enzyme activities were determined.
During the preliminary study, it was found unexpectedly that the vehicle used, DMSO/(Cremophor:propylene glycol […])/saline 5:5:90 v/v was associated with some liver toxicity as indicated by the moderate increase of serum AST and ALT activities in animals treated with vehicle alone.
Based on the preliminary studies, UTL-5g was selected for dose-dependent radioprotective studies. In this study, animals were treated with increasing doses of UTL-5g (from 0 to 60 mg/kg) one hr prior to liver irradiation (15 Gy). Two hr after irradiation, animals were sacrificed and serum AST/ALT enzyme activities and liver TNF-α levels were determined. […] For animals pre-treated with UTL-5g at 30 mg/kg, AST/ALT activity levels were lowered from 135/29 to 89/22 Unit/L, and those pre-treated with UTL-5g at 60 mg/kg, AST/ALT levels were reduced from 135/29 to 74/19 Unit/L, respectively.
Next, we investigated the radioprotective effect of UTL-5g with increased irradiation doses. In this study, animals were pre-treated with UTL-5g at 60 mg/kg and randomly divided into 4 groups. One hr later, they were subjected to liver irradiation at 0, 5, 15 and 25 Gy. Consistent with the previous study, pretreatment with UTL-5 g at 60 mg/kg was radioprotective against 15 Gy as evidenced by the reduction of serum AST activity (103.0 vs. 159.8 Unit/L in UTL-5g and in control vehicle groups, respectively) and ALT activity (17.8 vs. 32.3 Unit/L in UTL-5g and in control vehicle groups respectively) (FIG. 11).

[3] = system: apoptotic liver cells; assay: TUNEL assay for apoptotic liver cells after liver irradiation (Example 8); type: in vivo, mice; conditions: for numbers of TUNEL positive cells induced by irradiation: 15 Gy, relative to non-irradiated controls, irradiated vehicle 4.1
Method: Mice were pre-treated with various doses of UTL-5g (7.5, 15, 30, and 60 mg/kg, i.p.) or control vehicle at 1 hr prior to liver radiation with 15 Gy. […] Representative liver sections showing TUNEL positive cells (green) counter-stained with […] (4′-6-diamidino-2-phenylindole) for nuclei under fluorescent microscope (40×) (6B). RT: radiation treatment.
To further analyze the radioprotective effect of UTL-5g, we examined the number of liver apoptotic cells by in situ TUNEL staining At the end of treatment, liver tissue sections were prepared, fixed and stained with TUNEL staining for apoptotic cells. There were “spontaneous” apoptotic liver cells in control animals as detected by TUNEL staining (20/five random fields), approximately 0.2% of total liver cells. […] The radioprotective effect of UTL-5g was dose-dependent.

SMILES: Cc1cc(C(=O)Nc2ccc(Cl)cc2Cl)no1 [UTL-5g]
- effect on efficacy of cisplatin ([1]; UTL-5g 60 mg/kg 30 min before cisplatin 2.5 mg/kg, daily ×5 (Gp 3 vs Gp 2)): increased the efficacy of cisplatin; also recorded: did not have tumor-protective effect and actually increased the efficacy of cisplatin
- enhancement of efficacy of cisplatin ([1]; UTL-5g 60 mg/kg 30 min before cisplatin 5 mg/kg, single dose (Gp 5 vs Gp 4)): not observed
- serum AST and ALT levels induced by irradiation ([2]; 30 mg/kg i.p. 1 hr prior to liver irradiation 15 Gy, serum 2 hr after, C57BL/6 mice, preliminary study): the most effective in lowering both AST and ALT enzyme activities
- serum AST/ALT activities, dose dependence ([2]; UTL-5g 0 to 60 mg/kg i.p. 1 hr before liver irradiation 15 Gy, serum 2 hr after): significantly reduced serum AST/ALT activities in a drug dose-dependent manner
- serum ALT activity ([2]; UTL-5g 30 mg/kg 1 hr before 15 Gy, irradiated vehicle 29 (Example 6)): 22 Unit/L
- serum AST activity ([2]; UTL-5g 30 mg/kg 1 hr before 15 Gy, irradiated vehicle 135 (Example 6)): 89 Unit/L
- AST and ALT levels ([2]; UTL-5g 60 mg/kg 1 hr before 5 Gy): slightly but not significantly changed
- serum ALT activity ([2]; UTL-5g 60 mg/kg 1 hr before 15 Gy, control vehicle 32.3 (Example 7)): 17.8 Unit/L
- serum AST activity ([2]; UTL-5g 60 mg/kg 1 hr before 15 Gy, control vehicle 159.8 (Example 7)): 103.0 Unit/L
- serum ALT activity ([2]; UTL-5g 60 mg/kg 1 hr before 15 Gy, irradiated vehicle 29 (Example 6)): 19 Unit/L
- serum AST activity ([2]; UTL-5g 60 mg/kg 1 hr before 15 Gy, irradiated vehicle 135 (Example 6)): 74 Unit/L
- radioprotection (AST/ALT) ([2]; UTL-5g 60 mg/kg 1 hr before 25 Gy): only moderate protection
- AST and ALT enzyme activities without irradiation ([2]; UTL-5g 60 mg/kg alone, animals without irradiation): slightly increased
- TUNEL positive cells, protective effect ([3]; UTL-5g 7.5 mg/kg i.p. 1 hr prior to 15 Gy, liver 2 hr after): no significant protective effect
- numbers of TUNEL positive cells induced by irradiation ([3]; UTL-5g 15 mg/kg): 3.3 fold
- numbers of TUNEL positive cells induced by irradiation ([3]; UTL-5g 30 mg/kg): 1.8 fold
- numbers of TUNEL positive cells induced by irradiation ([3]; UTL-5g 60 mg/kg): 1.4 fold
- number of apoptotic cells in liver, non-irradiated animals ([3]; UTL-5g alone at 30 and 60 mg/kg, no irradiation): slightly increased the number of apoptotic cells
